In one assay the test system is HL-60. In words: Antiproliferative activity against human HL-60 cells assessed as inhibition of cell growth measured after 68 hrs by MTS assay. It counts as functional, cell-based. Particulars: HL-60, 68 h.
The subject of the next assay is HeLa. In words: Antiproliferative activity against human HeLa cells assessed as inhibition of cell growth measured after 68 hrs by MTS assay. It counts as functional, cell-based. (Tetrazolium assays rely on reduction of a dye to a coloured formazan, in cell work by metabolically active cells.)

Some results are limits rather than exact numbers.

A word on the IC50: it is the concentration at which inhibition is half-maximal. As for `COC1=C[C@]23CCCN2CCc2cc4c(cc2[C@@H]3[C@@H]1OC(=O)[C@@](O)(CCC(C)(C)O)CC(=O)O)OCO4`, the IC50 in the assay on HL-60 is > 100000 nM; with HeLa, > 100 µM. Regarding `COC1=C[C@]23CCCN2CCc2cc4c(cc2[C@@H]3[C@@H]1OC(=O)[C@@](O)(CCC(C)(C)O)CC(=O)OCC(C)C)OCO4`, the IC50 with HL-60 worked out at 119 nM; with HeLa, 23.8 µM.

On to `CCCCCOC(=O)C[C@](O)(CCC(C)(C)O)C(=O)O[C@@H]1C(OC)=C[C@]23CCCN2CCc2cc4c(cc2[C@H]13)OCO4`, for which the values for the IC50 in the assay with HL-60 and with HeLa were 22.7 nM and 6 µM, respectively.

Consider `CCCCCCCCOC(=O)C[C@](O)(CCC(C)(C)O)C(=O)O[C@@H]1C(OC)=C[C@]23CCCN2CCc2cc4c(cc2[C@H]13)OCO4`, for which the IC50 was found to be 11.8 nM in the assay on HL-60 and 2 µM with HeLa.

Turning to `COC1=C[C@]23CCCN2CCc2cc4c(cc2[C@@H]3[C@@H]1OC(=O)[C@@](O)(CCC(C)(C)O)CC(=O)OC(C)C)OCO4`, the IC50 amounted to 583 nM in the assay with HL-60 and 60.6 µM in the assay with HeLa. The matching figures for `CCCCOC(=O)C[C@](O)(CCC(C)(C)O)C(=O)O[C@@H]1C(OC)=C[C@]23CCCN2CCc2cc4c(cc2[C@H]13)OCO4`: 42.4 nM and 10.8 µM.

Regarding `CCCCCCCOC(=O)C[C@](O)(CCC(C)(C)O)C(=O)O[C@@H]1C(OC)=C[C@]23CCCN2CCc2cc4c(cc2[C@H]13)OCO4`, the IC50 turned out to be 9.4 nM in the assay with HL-60 and 0.4 µM in the assay on HeLa.

Take `CCOC(=O)C[C@](O)(CCC(C)(C)O)C(=O)O[C@@H]1C(OC)=C[C@]23CCCN2CCc2cc4c(cc2[C@H]13)OCO4`: the IC50 with HL-60 turned out to be 186 nM; with HeLa it was 24.2 µM.

For `CCCCCCOC(=O)C[C@](O)(CCC(C)(C)O)C(=O)O[C@@H]1C(OC)=C[C@]23CCCN2CCc2cc4c(cc2[C@H]13)OCO4`, the IC50 with HL-60 was 9.6 nM; in the assay with HeLa, 1.9 µM. Take `COC1=C[C@]23CCCN2CCc2cc4c(cc2[C@@H]3[C@@H]1OC(=O)[C@@](O)(CCC(C)(C)O)CC(=O)OC(C)(C)C)OCO4`: the IC50 in the assay on HL-60 was 6200 nM; in the assay on HeLa it was > 100 µM.

With `CCCOC(=O)C[C@](O)(CCC(C)(C)O)C(=O)O[C@@H]1C(OC)=C[C@]23CCCN2CCc2cc4c(cc2[C@H]13)OCO4`, the IC50 in the assay with HL-60 was determined as 104 nM; in the assay with HeLa, 15.8 µM. Take `CCC(C)OC(=O)C[C@](O)(CCC(C)(C)O)C(=O)O[C@@H]1C(OC)=C[C@]23CCCN2CCc2cc4c(cc2[C@H]13)OCO4` (mixture of isomers): the half-inhibitory concentration (IC50) with HL-60 was determined as 499 nM; in the assay with HeLa, 97.9 µM. On the same counts, the results for `COC(=O)C[C@](O)(CCC(C)(C)O)C(=O)O[C@@H]1C(OC)=C[C@]23CCCN2CCc2cc4c(cc2[C@H]13)OCO4` [HARRINGTONINE] are 50.5 nM and 4 µM.

As for `COC(=O)C[C@](O)(CCCC(C)(C)O)C(=O)O[C@@H]1C(OC)=C[C@]23CCCN2CCc2cc4c(cc2[C@H]13)OCO4` [OMACETAXINE MEPESUCCINATE], the IC50 in the assay on HeLa was 1.7 µM.

The values above are taken from ChEMBL document CHEMBL5131492, “Harringtonine Ester Derivatives with Enhanced Antiproliferative Activities against HL-60 and HeLa Cells” (J Nat Prod, 2022).
